Converted amounts (≈) assume the structure as drawn. A value given as a limit tells only on which side of the number the result lay.

Here are results for six molecules from patent publication US5939448A, “Triazole derivative or salt thereof” (SS Pharmaceutical Co., Ltd., priority 1996, dated 1999).

The subject of one experiment is C. albicans ATCC 44859. As to the kind of experiment: Test 1: In vitro antifungal activity against Candida albicans (suppression of mycelial type growth). It counts as cell-based. As to conditions: ATCC44859, minimum concentration permitting apparent suppression of mycerial type growth, 10% fetal bovine serum added MEM, 37° C., 20 hours, read-out: Terminal Point C. albicans. How it is done: Test 1: In vitro antifungal activity against Candida albicans
They were incubated at 37° C. for 20 hours in a CO2 gas incubator. After incubation, morphological change of C. albicans was observed under an inverted microscope.

The test system of another experiment is A. fumigatus IFM 40808. Briefly: Test 2: In vitro antifungal activity against Aspergillus fumigatus (MIC). It counts as cell-based. As to conditions: IFM40808, RPMI 1640 with 0.165M MOPS, pH 7, 35° C., 24 hours. The method, then: Test 2: In vitro antifungal activity against Aspergillus fumigatus
(§1) They were incubated at 35° C. for 24 hours.

A further experiment relates to A. flavus IFM 41935. Briefly: Test 3: In vitro antifungal activity against Aspergillus flavus (MIC). It counts as cell-based. As to conditions: IFM41935, RPMI 1640 with 0.165M MOPS, pH 7, 35° C., 24 hours. How it is done: Test 3: In vitro antifungal activity against Aspergillus flavus
as §1

For a further experiment, the system named is C. albicans IFM 40009. As to the kind of experiment: Test 4: In vivo antifungal activity against Candida albicans (survival of infected mice). As to conditions: oral 1.25 mg/kg each, four times in total; for Mean survival days: 14 days after infection, vs. control ***: p < 0.001, **: p < 0.01; for Survival mice on 14-th day: survivors/mice of group. The arrangement: species or system Candida albicans; male ICR (CRJ: CD-1) mouse. How it is done: Test 4: In vivo antifungal activity against Candida albicans
After 4-week-old, male, ICR (CRJ: CD-1) mouse was fasted for 6 hours, C. albicans IFM 40009 was inoculated to a tail vein of the mouse to give an amount of 3.0×10^6 cells/mouse, whereby infection was caused. A control group consisted of 8 mice, while a chemical-administered group consisted of 5 mice. The chemical was orally administered once an hour after the inoculation of the fungus and 24 hours after the inoculation, and once a day consecutively, four times in total, at 1.25 mg/kg each. The survival during 14 days after the infection was counted. In addition, the mean survival days of the control group and the mean survival days of the chemical-administered group were compared and statistically analyzed by the Kaplan-Meire method (Cox mantel test).

In the case of `OCCSC(F)(F)C(O)(Cn1cncn1)c1ccc(F)cc1F` (stereo not drawn) [Example 18, 2-(2,4-difluorophenyl)-1,1-difluoro-1-(2-hydroxyethyl)thio-3-(1H-1,2,4-triazol-1-yl)propan-2-ol], the results for the MIC in the experiment with C. albicans ATCC 44859, against A. fumigatus IFM 40808 and in the experiment on A. flavus IFM 41935 were 0.25 µg/mL (≈ 0.712 µM), 64 µg/mL (≈ 182 µM) and 64 µg/mL (≈ 182 µM), respectively.
Regarding `O=S(=O)(CCO)C(F)(F)C(O)(Cn1cncn1)c1ccc(F)cc1F` (stereo not drawn) [Example 20, 2-(2,4-difluorophenyl)-1,1-difluoro-1-(2-hydroxyethyl)sulfonyl-3-(1H-1,2,4-triazol-1-yl)propan-2-ol], in the experiment on C. albicans IFM 40009, the Mean survival days was found to be 14.0 days and the “Survival mice on 14-th day” value is 5/5.
`COCCSC(F)(F)C(O)(Cn1cncn1)c1ccc(F)cc1F` (stereo not drawn) [Example 15, 2-(2,4-difluorophenyl)-1,1-difluoro-1-(2-methoxyethyl)thio-3-(1H-1,2,4-triazol-1-yl)propan-2-ol]: the MIC is 0.0156 µg/mL (≈ 0.0427 µM) with C. albicans ATCC 44859, 4 µg/mL (≈ 10.9 µM) against A. fumigatus IFM 40808 and 8 µg/mL (≈ 21.9 µM) in the experiment with A. flavus IFM 41935.
The like results for `CC(=O)OCCSC(F)(F)C(O)(Cn1cncn1)c1ccc(F)cc1F` (stereo not drawn) [Example 14, 1-(2-acetoxyethyl)thio-2-(2,4-difluorophenyl)-1,1-difluoro-3-(1H-1,2,4-triazol-1-yl)propan-2-ol] were, in that order, 0.0313 µg/mL (≈ 0.0796 µM), 8 µg/mL (≈ 20.3 µM) and 4 µg/mL (≈ 10.2 µM).
With `OC(Cn1cncn1)(Cn1cncn1)c1ccc(F)cc1F` [Fluconazole, reference compound], the MIC with C. albicans ATCC 44859 was 0.25 µg/mL (≈ 0.816 µM); against A. fumigatus IFM 40808 it was above 128 µg/mL; against A. flavus IFM 41935, above 128 µg/mL. Moreover, the Mean survival days with C. albicans IFM 40009 is on record as 9.6 days. Further, in the experiment on C. albicans IFM 40009, the “Survival mice on 14-th day” value was 0/5.
`COCCS(=O)(=O)C(F)(F)C(O)(Cn1cncn1)c1ccc(F)cc1F` (stereo not drawn) [Example 21, 2-(2,4-difluorophenyl)-1,1-difluoro-1-(2-methoxyethyl)sulfonyl-3-(1H-1,2,4-triazol-1-yl)propan-2-ol]: the MIC with C. albicans ATCC 44859 turned out to be 0.0625 µg/mL (≈ 0.157 µM); in the experiment on A. fumigatus IFM 40808, 16 µg/mL (≈ 40.3 µM); against A. flavus IFM 41935, 32 µg/mL (≈ 80.5 µM). The molecule further showed a Mean survival days in the experiment with C. albicans IFM 40009 of 14.0 days. The “Survival mice on 14-th day” value with C. albicans IFM 40009 is 4/5.
